Measurements reported in the CheMixHub viscosity set.

Experiment: xn = mol fraction of the nth substance listed

CCCCO + O
Conditions	viscosity [mPa·s]
293.15 K, 100 kPa, x1 = 0.02	1.378
293.15 K, 100 kPa, x1 = 0.5485	3.301
293.15 K, 101 kPa, x1 = 0.005	1.077
293.15 K, 101 kPa, x1 = 0.01	1.155
293.15 K, 101 kPa, x1 = 0.015	1.232
298.15 K, 101 kPa, x1 = 0.005	0.947
298.15 K, 101 kPa, x1 = 0.01	1.003
298.15 K, 101 kPa, x1 = 0.015	1.058
298.15 K, 101 kPa, x1 = 0.69	2.598
298.15 K, 101 kPa, x2 = 0.0398	2.622
298.15 K, 101 kPa, x2 = 0.0784	2.618
298.15 K, 101 kPa, x2 = 0.1202	2.619
298.15 K, 101 kPa, x2 = 0.1424	2.62
298.15 K, 101 kPa, x2 = 0.163	2.626
298.15 K, 101 kPa, x2 = 0.1955	2.634
298.15 K, 101 kPa, x2 = 0.2265	2.647
298.15 K, 101 kPa, x2 = 0.2719	2.679
298.15 K, 101.3 kPa, x1 = 0.003	0.9421
298.15 K, 101.3 kPa, x1 = 0.006	0.994
298.15 K, 101.3 kPa, x1 = 0.009	1.047
298.15 K, 101.3 kPa, x1 = 0.012	1.1
298.15 K, 101.33 kPa, x1 = 0.0017	0.921
298.15 K, 101.33 kPa, x1 = 0.00297	0.941
298.15 K, 101.33 kPa, x1 = 0.00364	0.949
298.15 K, 101.33 kPa, x1 = 0.00491	0.97
298.15 K, 101.33 kPa, x1 = 0.00559	0.981
298.15 K, 101.33 kPa, x1 = 0.0081	1.021
298.15 K, 101.33 kPa, x1 = 0.00972	1.048
298.15 K, 101.33 kPa, x1 = 0.0124	1.096
298.15 K, 101.33 kPa, x1 = 0.0136	1.114
298.15 K, 101.33 kPa, x1 = 0.0151	1.141
298.15 K, 101.33 kPa, x1 = 0.0166	1.166
298.15 K, 101.33 kPa, x1 = 0.0179	1.185
303.15 K, 101 kPa, x1 = 0.005	0.842
303.15 K, 101 kPa, x1 = 0.01	0.883
303.15 K, 101 kPa, x1 = 0.015	0.93
303.15 K, 101.33 kPa, x1 = 0.013	0.968
303.15 K, 101.33 kPa, x2 = 0.095	2.236
303.15 K, 101.33 kPa, x2 = 0.2526	2.272
303.15 K, 101.33 kPa, x2 = 0.4385	2.42
308.15 K, 101 kPa, x1 = 0.005	0.758
308.15 K, 101 kPa, x1 = 0.01	0.794
308.15 K, 101 kPa, x1 = 0.015	0.841
308.15 K, 101 kPa, x2 = 0.0398	2.032
308.15 K, 101 kPa, x2 = 0.0784	2.022
308.15 K, 101 kPa, x2 = 0.1202	2.017
308.15 K, 101 kPa, x2 = 0.1424	2.016
308.15 K, 101 kPa, x2 = 0.163	2.017
308.15 K, 101 kPa, x2 = 0.1955	2.024
308.15 K, 101 kPa, x2 = 0.2265	2.027
313.15 K, 101 kPa, x1 = 0.005	0.682
313.15 K, 101 kPa, x1 = 0.01	0.712
313.15 K, 101 kPa, x1 = 0.015	0.746
318.15 K, 101 kPa, x1 = 0.005	0.62
318.15 K, 101 kPa, x1 = 0.01	0.638
318.15 K, 101 kPa, x1 = 0.015	0.662
318.15 K, 101 kPa, x2 = 0.0412	1.597
318.15 K, 101 kPa, x2 = 0.0733	1.588
318.15 K, 101 kPa, x2 = 0.1101	1.581
318.15 K, 101 kPa, x2 = 0.1458	1.576
318.15 K, 101 kPa, x2 = 0.1755	1.571
318.15 K, 101 kPa, x2 = 0.2129	1.578
323.15 K, 100 kPa, x1 = 0.02	0.668
323.15 K, 100 kPa, x1 = 0.5485	1.447
323.15 K, 101 kPa, x1 = 0.005	0.566
323.15 K, 101 kPa, x1 = 0.01	0.58
323.15 K, 101 kPa, x1 = 0.015	0.602

CCCCCCCCCCCC(=O)O + CC(C)[C@@H]1CC[C@@H](C)C[C@H]1O
viscosity [mPa·s]
Conditions	293.15 K	298.15 K	303.15 K	308.15 K	313.15 K	318.15 K	323.15 K
100 kPa, x1 = 0.25	–	28.1	20.91	15.93	12.4	9.84	7.94
100 kPa, x2 = 0.33	33.06	24.42	18.63	14.51	11.45	9.293	7.61
101 kPa, x1 = 0.333	21.81	–	12.5	–	7.657	–	5.112

CCCC[N+](CCCC)(CCCC)CCCC.[Br-] + O
298.15 K, 101 kPa
Conditions	viscosity [mPa·s]
x1 = 0.0009	0.8723
x1 = 0.0089	1.538
x1 = 0.0177	2.273

CCCC[N+](CCCC)(CCCC)CCCC.[Br-] + OCCOCCOCCO
100 kPa, x1 = 0.2
Conditions	viscosity [mPa·s]
303.15 K	279.6
313.15 K	176.9
323.15 K	101.6

[F-].[K+] + O
Conditions	viscosity [mPa·s]
298.15 K, 100 kPa, x1 = 0.02	1.005
298.15 K, 100 kPa, x1 = 0.03	1.133
298.15 K, 100 kPa, x1 = 0.07	1.53
298.15 K, 100 kPa, x1 = 0.1	2.16
298.15 K, 100 kPa, x1 = 0.2	3.23
303.15 K, 101 kPa, x1 = 0.002	0.808
303.15 K, 101 kPa, x1 = 0.005	0.828
303.15 K, 101 kPa, x1 = 0.009	0.849
308.15 K, 101 kPa, x1 = 0.002	0.735
308.15 K, 101 kPa, x1 = 0.005	0.754
308.15 K, 101 kPa, x1 = 0.009	0.778
313.15 K, 101 kPa, x1 = 0.005	0.687
313.15 K, 101 kPa, x1 = 0.009	0.709
318.15 K, 101 kPa, x1 = 0.005	0.632
318.15 K, 101 kPa, x1 = 0.009	0.651
323.15 K, 100 kPa, x1 = 0.02	0.5955
323.15 K, 100 kPa, x1 = 0.03	0.7039
323.15 K, 100 kPa, x1 = 0.07	0.9529
323.15 K, 100 kPa, x1 = 0.1	1.35
323.15 K, 100 kPa, x1 = 0.2	2.021

CCCC[N+](CCCC)(CCCC)CCCC.[Br-] + OCC(O)CO
viscosity [mPa·s], x1 = 0.2
Conditions	296.97 K	298 K	302.02 K	307.2 K	312.13 K	317.31 K	322.23 K
101 kPa	892.4	–	671.4	484.4	331.4	238	195.5
101.33 kPa	–	333.9	–	–	–	–	–

NC(N)=S + c1ccncc1
298.15 K, 101 kPa
Conditions	viscosity [mPa·s]
x1 = 0.0572	1.251
x1 = 0.13	2.019

NCCNCCN + CCCCCCO
viscosity [mPa·s], 101 kPa
Conditions	298.15 K	303.15 K	308.15 K
x1 = 0.0573	5.116	4.247	3.626
x1 = 0.1064	5.533	4.59	3.929
x1 = 0.1567	5.928	4.857	4.134
x1 = 0.2089	6.207	5.066	4.274
x1 = 0.2683	6.373	5.168	4.367
x1 = 0.2986	6.429	5.206	4.393
x1 = 0.4054	6.424	5.195	4.362
x1 = 0.5082	6.261	5.038	4.22
x1 = 0.6024	5.991	4.851	4.058
x1 = 0.7078	5.825	4.666	3.925
x1 = 0.7906	5.648	4.568	3.857
x1 = 0.8419	5.594	4.524	3.828
x1 = 0.9102	5.589	4.493	3.81
x1 = 0.9579	5.579	4.478	3.801
